Results: publication PMC7045321 (ACS Omega, 2020)

Experiments:
S. aureus [1] = assay: Time-kill kinetics in MHB; assay type: cell-based, Staphylococcus aureus; details: 4 × MIC in MHB
S. aureus [2] = assay: Time-kill kinetics in MHB with 10% serum; assay type: cell-based, Staphylococcus aureus; details: 4 × MIC in MHB with 10% fetal bovine serum (FBS), 37 °C

With `CN[C@H](CC(C)C)C(=O)N[C@H]1C(=O)N[C@@H](CC(N)=O)C(=O)N[C@H]2C(=O)N[C@H]3C(=O)N[C@H](C(=O)N[C@H](C(=O)O)c4cc(O)cc(O)c4-c4cc3ccc4O)[C@H](O)c3ccc(c(Cl)c3)Oc3cc2cc(c3O[C@@H]2O[C@H](CO)[C@@H](O)[C@H](O)[C@H]2O[C@H]2C[C@](C)(N)[C@H](O)[C@H](C)O2)Oc2ccc(cc2Cl)[C@H]1O` [vancomycin] the “log reduction after 24 h” value (S. aureus [1]; 37 °C) was 3 log, the “time to complete eradication of viable S. aureus cells” value (S. aureus [1]; ~10^5 CFU mL^–1, 37 °C, followed for 24 h) was “not complete eradication” and the “log reduction in cell viability after 3 h exposure” value (S. aureus [2]) was 1 log.
